Data taken from patent US20090018148A1, “Xanthine Derivatives, Processes For Preparing Them And Their Uses” (UCB PHARMA, S.A., priority 2005, published 2009).

| melting point | Compound |
| --- | --- |
| 132 °C | CCOC(=O)C(CC)Sc1nc2c(c(=O)[nH]c(=O)n2C)n1CC(C)C (racemic) [Compound 31, ethyl 2-[(7-isobutyl-3-methyl-2,6-dioxo-2,3,6,7-tetrahydro-1H-purin-8-yl)thio]butanoate] |
| 58 °C | CCOC(=O)C(CC)Sc1nc2c(c(=O)n(CCOC)c(=O)n2C)n1Cc1cccc(Br)c1 (racemic) [Compound 3, ethyl 2-{[7-(3-bromobenzyl)-1-(2-methoxyethyl)-3-methyl-2,6-dioxo-2,3,6,7-tetrahydro-1H-purin-8-yl]thio}butanoate] |
| 167 °C | CCC(CC)Sc1nc2c(c(=O)[nH]c(=O)n2C)n1Cc1cccc(Br)c1 [Compound 29, 7-(3-bromobenzyl)-8-[(1-ethylpropyl)thio]-3-methyl-3,7-dihydro-1H-purine-2,6-dione] |
| 253 °C | CCCCn1c(SC(CC)C(N)=O)nc2c1c(=O)[nH]c(=O)n2C (racemic) [Compound 28, 2-[(7-butyl-3-methyl-2,6-dioxo-2,3,6,7-tetrahydro-1H-purin-8-yl)thio]butanamide] |
| 76 °C | CCOC(=O)C(CC)Sc1nc2c(c(=O)n(C)c(=O)n2C)n1Cc1cccc(Br)c1 (racemic) [Compound 5, ethyl 2-{[7-(3-bromobenzyl)-1,3-dimethyl-2,6-dioxo-2,3,6,7-tetrahydro-1H-purin-8-yl]thio}butanoate] |
| 147 °C | CCOC(=O)C(CC)Sc1nc2c(c(=O)[nH]c(=O)n2C)n1Cc1cccc([N+](=O)[O-])c1 (racemic) [Compound 13, ethyl 2-{[3-methyl-7-(3-nitrobenzyl)-2,6-dioxo-2,3,6,7-tetrahydro-1H-purin-8-yl]thio}butanoate] |
| 90.1 °C | CCOC(=O)C(CC)Sc1nc2[nH]c(=O)[nH]c(=O)c2n1Cc1cccc(Br)c1 (racemic) [Compound 4, ethyl 2-{[7-(3-bromobenzyl)-2,6-dioxo-2,3,6,7-tetrahydro-1H-purin-8-yl]thio}butanoate] |
| 175.2 °C | CCOC(=O)C(CC)Sc1nc2c(c(=O)[nH]c(=O)n2C)n1Cc1ccc(S(N)(=O)=O)cc1 (racemic) [Compound 15, ethyl 2-({7-[4-(aminosulfonyl)benzyl]-3-methyl-2,6-dioxo-2,3,6,7-tetrahydro-1H-purin-8-yl}thio)butanoate] |
| 87 °C | CCCCCCn1c(SC(CC)C(=O)OCC)nc2c1c(=O)[nH]c(=O)n2C (racemic) [Compound 25, ethyl 2-[(7-hexyl-3-methyl-2,6-dioxo-2,3,6,7-tetrahydro-1H-purin-8-yl)thio]butanoate] |
| 97 °C | C#CCn1c(=O)c2c(nc(SC(CC)C(=O)OCC)n2Cc2cccc(Br)c2)n(C)c1=O (racemic) [Compound 11, ethyl 2-{[7-(3-bromobenzyl)-3-methyl-2,6-dioxo-1-(2-propynyl)-2,3,6,7-tetrahydro-1H-purin-8-yl]thio}butanoate] |
| 208 °C | CCOC(=O)C(CC)Sc1nc2c(c(=O)[nH]c(=O)n2C)n1Cc1c(C)noc1C (racemic) [Compound 20, ethyl 2-({7-[(3,5-dimethylisoxazol-4-yl)methyl]-3-methyl-2,6-dioxo-2,3,6,7-tetrahydro-1H-purin-8-yl}thio)butanoate] |
| 84 °C | CCOC(=O)C(CC)Sc1nc2c(c(=O)n(CC#N)c(=O)n2C)n1Cc1cccc(Br)c1 (racemic) [Compound 7, ethyl 2-{[7-(3-bromobenzyl)-1-(cyanomethyl)-3-methyl-2,6-dioxo-2,3,6,7-tetrahydro-1H-purin-8-yl]thio}butanoate] |
| 244.15 °C | CCC(Sc1nc2c(c(=O)[nH]c(=O)n2C)n1Cc1cccc(Br)c1)C(N)=O (racemic) [Compound 27, 2-{[7-(3-bromobenzyl)-3-methyl-2,6-dioxo-2,3,6,7-tetrahydro-1H-purin-8-yl]thio}butanamide] |
| 115 °C | CCOC(=O)C(CC)Sc1nc2c(c(=O)[nH]c(=O)n2C)n1Cc1cccc(OC)c1 (racemic) [Compound 12, ethyl 2-{[7-(3-methoxybenzyl)-3-methyl-2,6-dioxo-2,3,6,7-tetrahydro-1H-purin-8-yl]thio}butanoate] |
| 107 °C | CCOC(=O)C(CC)Sc1nc2c(c(=O)[nH]c(=O)n2C)n1Cc1cccc(N)c1 (racemic) [Compound 14, ethyl 2-{[7-(3-aminobenzyl)-3-methyl-2,6-dioxo-2,3,6,7-tetrahydro-1H-purin-8-yl]thio}butanoate] |
| 101 °C | CCOC(=O)C(CC)Sc1nc2c(c(=O)n(C)c(=O)n2C)n1Cc1ccccc1Br (racemic) [Compound 6, ethyl 2-{[7-(2-bromobenzyl)-1,3-dimethyl-2,6-dioxo-2,3,6,7-tetrahydro-1H-purin-8-yl]thio}butanoate] |
| 172 °C | CCOC(=O)C(CC)Sc1nc2c(c(=O)[nH]c(=O)n2C)n1Cc1ccc([N+](=O)[O-])o1 (racemic) [Compound 21, ethyl 2-({3-methyl-7-[(5-nitro-2-furyl)methyl]-2,6-dioxo-2,3,6,7-tetrahydro-1H-purin-8-yl}thio)butanoate] |
| 72 °C | CCOC(=O)C(CC)Sc1nc2c(c(=O)n(C)c(=O)n2C)n1Cc1ccccc1 (racemic) [Compound 1, ethyl 2-[(7-benzyl-1,3-dimethyl-2,6-dioxo-2,3,6,7-tetrahydro-1H-purin-8-yl)thio]butanoate] |
| 104 °C | CCCCn1c(SC(CC)C(=O)OCC)nc2c1c(=O)[nH]c(=O)n2C (racemic) [Compound 22, ethyl 2-[(7-butyl-3-methyl-2,6-dioxo-2,3,6,7-tetrahydro-1H-purin-8-yl)thio]butanoate] |
